According to the Deep4Chem optical property database:

Test: solvent given as SMILES

Row | Structure (SMILES) | absorption maximum (in C1CCOC1) [nm] | absorption maximum (in CC#N) [nm] | absorption maximum (in CCO) [nm] | absorption maximum (in ClCCl) [nm] | absorption maximum (in CCOC(C)=O) [nm] | absorption maximum (in ClC(Cl)Cl) [nm] | also measured
1 | CSc1sc(C(=O)c2ccccc2)c2nn[nH]c(=O)c12 | 396.5 | 396 | 400 |  |  |  | absorption maximum (in CN(C)C=O): 409 nm; absorption maximum (in CO): 400 nm; absorption maximum (in CS(C)=O): 405.5 nm
2 | CC(C)[Si](C#Cc1c2ccccc2c(C#C[Si](C(C)C)(C(C)C)C(C)C)c2nc3c4ccccc4c(=O)c4ccccc4c3nc12)(C(C)C)C(C)C |  |  |  | 509 |  |  | 
3 | CC1=NN(c2ccccc2)C(=O)/C1=C/c1cn(-c2ccccc2)nc1-c1ccccc1 | 365 |  | 367 | 368 | 364 | 368 | absorption maximum (in C1COCCO1): 366 nm; absorption maximum (in CN(C)C=O): 367 nm; absorption maximum (in CO): 364 nm; absorption maximum (in CS(C)=O): 370 nm; absorption maximum (in Cc1ccccc1): 369 nm
4 | F[B-]1(F)n2c(cc3sc4ccccc4c32)C(c2ccc(I)cc2)=C2C=c3sc4ccccc4c3=[N+]21 |  |  |  |  |  | 658 | 
5 | CCCCCCCCn1nnc(-c2ccc(C#Cc3ccc(C#Cc4ccc(-c5nnn(CCCCCCCC)n5)cc4)c4nc5c6ccccc6c6ccccc6c5nc34)cc2)n1 | 428 |  |  | 428 |  |  | absorption maximum (in Cc1ccccc1): 428 nm
6 | CCOC(=O)CSc1nc(-c2ccccc2)c(C)c(C#N)c1C#N |  | 365 | 367 |  | 366 | 376 | absorption maximum (in C1COCCO1): 350 nm; absorption maximum (in c1ccccc1): 372 nm
7 | CC1=[N+]2C(=C(c3ccc(N(c4ccccc4)c4ccccc4)cc3)c3ccc(C)n3[B-]2(F)F)C=C1c1cc2n(c1)[B-](F)(F)[N+]1=CC=CC1=C2c1c(C)cc(C)cc1C |  |  |  |  | 596 |  | absorption maximum (in C1CCCCC1): 593 nm
8 | CC(C)(C)Nc1oc(C=Cc2ccccc2)c(C(=O)OC(C)(C)C)c1C(=O)OC(C)(C)C |  | 384 |  |  |  |  | 
9 | CC(C)(C)c1ccc(-c2ccc3c(-c4ccc(C(C)(C)C)c5ccccc45)cc4c5cc(-c6ccc(C(C)(C)C)c7ccccc67)ccc5c(-c5ccc(C(C)(C)C)c6ccccc56)cc4c3c2)c2ccccc12 |  |  |  | 300 |  |  | 
10 | COc1ccc(-c2cnc(-c3cccnc3)o2)cc1OC |  |  |  | 330 |  |  | 
